# Assay results from BindingDB's records for doi:10.1111/j.1432-1033.1992.tb17043.x (Universit&Eacute, 1992).
# Non-standard residues stand in square brackets, D forms with d. Residues, ends and D or L forms follow the SMILES beside them. ξ: configuration not given here. Ile(3ξ) = CCC(C)[C@H](N)C(=O)O
# Target: T1, Pituitary adenylate cyclase-activating polypeptide (Homo sapiens, UniProt P18509)
# T1 sequence (P18509 whole entry): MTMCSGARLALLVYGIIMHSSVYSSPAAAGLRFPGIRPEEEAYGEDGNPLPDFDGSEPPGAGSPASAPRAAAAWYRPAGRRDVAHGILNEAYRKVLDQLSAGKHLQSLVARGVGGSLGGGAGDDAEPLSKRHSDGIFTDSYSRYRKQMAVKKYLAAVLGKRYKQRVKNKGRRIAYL
row,Ki,SMILES
1,10 nM,"CCC(C)[C@H](NC(=O)CNC(=O)[C@H](CC(=O)O)NC(=O)[C@H](Cc1ccccc1)NC(=O)[C@H](Cc1cnc[nH]1)NC(C)=O)C(=O)N[C@@H](Cc1ccccc1)C(=O)N[C@H](C(=O)N[C@@H](CC(=O)O)C(=O)N[C@@H](CO)C(=O)N[C@@H](Cc1ccc(O)cc1)C(=O)N[C@@H](CO)C(=O)N[C@@H](CCCN=C(N)N)C(=O)N[C@@H](Cc1ccc(O)cc1)C(=O)N[C@@H](CCCN=C(N)N)C(=O)N[C@@H](CCCCN)C(=O)N[C@@H](CCC(N)=O)C(=O)N[C@@H](CCSC)C(=O)N[C@@H](C)C(=O)N[C@H](C(=O)N[C@@H](CCCCN)C(=O)N[C@@H](CCCCN)C(=O)N[C@@H](Cc1ccc(O)cc1)C(=O)N[C@@H](CC(C)C)C(=O)N[C@@H](C)C(=O)N[C@@H](C)C(=O)N[C@H](C(=O)N[C@@H](CC(C)C)C(=O)NCC(=O)N[C@@H](CCCCN)C(=O)N[C@@H](CCCN=C(N)N)C(=O)N[C@@H](Cc1ccc(O)cc1)C(=O)N[C@@H](CCCCN)C(=O)N[C@@H](CCC(N)=O)C(=O)N[C@@H](CCCN=C(N)N)C(=O)N[C@H](C(=O)N[C@@H](CCCCN)C(=O)N[C@@H](CC(N)=O)C(=O)N[C@@H](CCCCN)C(N)=O)C(C)C)C(C)C)C(C)C)[C@@H](C)O (some centres undefined) [[AcHis1,Phe2]PACAP(1-38)]"
2,200 nM,CCC(C)[C@H](NC(=O)CNC(=O)[C@@H](N)CC(=O)O)C(=O)N[C@@H](Cc1ccccc1)C(=O)N[C@H](C(=O)N[C@@H](CC(=O)O)C(=O)N[C@@H](CO)C(=O)N[C@@H](Cc1ccc(O)cc1)C(=O)N[C@@H](CO)C(=O)N[C@@H](CCCN=C(N)N)C(=O)N[C@@H](Cc1ccc(O)cc1)C(=O)N[C@@H](CCCN=C(N)N)C(=O)N[C@@H](CCCCN)C(=O)N[C@@H](CCC(N)=O)C(=O)N[C@@H](CCSC)C(=O)N[C@@H](C)C(=O)N[C@H](C(=O)N[C@@H](CCCCN)C(=O)N[C@@H](CCCCN)C(=O)N[C@@H](Cc1ccc(O)cc1)C(=O)N[C@@H](CC(C)C)C(=O)N[C@@H](C)C(=O)N[C@@H](C)C(=O)N[C@H](C(=O)N[C@@H](CC(C)C)C(N)=O)C(C)C)C(C)C)[C@@H](C)O (some centres undefined) [PACAP(3-27)] (H-DG[Ile(3ξ)]FTDSYSRYRKQMAVKKYLAAVL-NH2)
3,10 nM,CCC(C)[C@H](NC(=O)CNC(=O)[C@H](CC(=O)O)NC(=O)[C@H](Cc1ccccc1)NC(=O)[C@@H](N)Cc1cnc[nH]1)C(=O)N[C@@H](Cc1ccccc1)C(=O)N[C@H](C(=O)N[C@@H](CC(=O)O)C(=O)N[C@@H](CO)C(=O)N[C@@H](Cc1ccc(O)cc1)C(=O)N[C@@H](CO)C(=O)N[C@@H](CCCN=C(N)N)C(=O)N[C@@H](Cc1ccc(O)cc1)C(=O)N[C@@H](CCCN=C(N)N)C(=O)N[C@@H](CCCCN)C(=O)N[C@@H](CCC(N)=O)C(=O)N[C@@H](CCSC)C(=O)N[C@@H](C)C(=O)N[C@H](C(=O)N[C@@H](CCCCN)C(=O)N[C@@H](CCCCN)C(=O)N[C@@H](Cc1ccc(O)cc1)C(=O)N[C@@H](CC(C)C)C(=O)N[C@@H](C)C(=O)N[C@@H](C)C(=O)N[C@H](C(=O)N[C@@H](CC(C)C)C(=O)NCC(=O)N[C@@H](CCCCN)C(=O)N[C@@H](CCCN=C(N)N)C(=O)N[C@@H](Cc1ccc(O)cc1)C(=O)N[C@@H](CCCCN)C(=O)N[C@@H](CCC(N)=O)C(=O)N[C@@H](CCCN=C(N)N)C(=O)N[C@H](C(=O)N[C@@H](CCCCN)C(=O)N[C@@H](CC(N)=O)C(=O)N[C@@H](CCCCN)C(N)=O)C(C)C)C(C)C)C(C)C)[C@@H](C)O (some centres undefined) [[Phe2]PACAP(1-38)] (H-HFDG[Ile(3ξ)]FTDSYSRYRKQMAVKKYLAAVLGKRYKQRVKNK-NH2)
4,10 nM,CCC(C)[C@H](NC(=O)CNC(=O)[C@H](CC(=O)O)NC(=O)[C@@H](Cc1ccccc1)NC(=O)[C@@H](N)Cc1cnc[nH]1)C(=O)N[C@@H](Cc1ccccc1)C(=O)N[C@H](C(=O)N[C@@H](CC(=O)O)C(=O)N[C@@H](CO)C(=O)N[C@@H](Cc1ccc(O)cc1)C(=O)N[C@@H](CO)C(=O)N[C@@H](CCCN=C(N)N)C(=O)N[C@@H](Cc1ccc(O)cc1)C(=O)N[C@@H](CCCN=C(N)N)C(=O)N[C@@H](CCCCN)C(=O)N[C@@H](CCC(N)=O)C(=O)N[C@@H](CCSC)C(=O)N[C@@H](C)C(=O)N[C@H](C(=O)N[C@@H](CCCCN)C(=O)N[C@@H](CCCCN)C(=O)N[C@@H](Cc1ccc(O)cc1)C(=O)N[C@@H](CC(C)C)C(=O)N[C@@H](C)C(=O)N[C@@H](C)C(=O)N[C@H](C(=O)N[C@@H](CC(C)C)C(=O)NCC(=O)N[C@@H](CCCCN)C(=O)N[C@@H](CCCN=C(N)N)C(=O)N[C@@H](Cc1ccc(O)cc1)C(=O)N[C@@H](CCCCN)C(=O)N[C@@H](CCC(N)=O)C(=O)N[C@@H](CCCN=C(N)N)C(=O)N[C@H](C(=O)N[C@@H](CCCCN)C(=O)N[C@@H](CC(N)=O)C(=O)N[C@@H](CCCCN)C(N)=O)C(C)C)C(C)C)C(C)C)[C@@H](C)O (stereo partly drawn) [[D-Phe2]PACAP-38] (H-H[dF]DG[Ile(3ξ)]FTDSYSRYRKQMAVKKYLAAVLGKRYKQRVKNK-NH2)
